Test results as given in publication PMC8234359, “Pharmacokinetics in Zebrafish Embryos (ZFE) Following Immersion and Intrayolk Administration: A Fluorescence-Based Analysis” (Pharmaceuticals, 2021).

How the values were obtained:
[1] = Intrayolk (IY) microinjection of two-cell stage zebrafish embryos (2 mg/kg), spatiotemporal fluorescence imaging and non-compartmental AUC; assay type: in vivo, zebrafish (Danio rerio); details: for accumulation in the gastrointestinal system / localization of the dye after IY microinjection: IY microinjection 2 mg/kg; for accumulation in the gastrointestinal system: after 96 hpf; for RD (IY), Relative Distribution: ratio of AUCRoB to AUCWB after microinjection into the yolk (2 mg/kg), 0.25–72 h; for localization of the dye after IY microinjection: first hours post injection
Description: Intrayolk microinjection (IY): zebrafish embryos at the two-cell stage were positioned in a Petri dish at room temperature. […] Needles were filled with compounds dissolved in the vehicle (DMSO/saline (1:1)), placed under the microscope, and using forceps, the tip was cut off in a manner to allow for a consistent volume to be injected. Afterwards, the embryos were transferred to 6-well plates. Control embryos were exposed to vehicle only. […] Previous to fluorescence imaging, the embryos were dechorionated (up to 72 hpf) and immobilized by hypothermia, rinsed three times with Danieau's medium, and positioned latero-lateral (right lateral recumbency) on a single cavity glass slide and covered by a drop of agarose (0.1%). Then, using MetaMorph (Microscopy Automation and Image Analysis Software V.7.8.00, Molecular Devices, LLC., San Jose, CA, USA) and by manual delineation of the whole-body (WB) (up to 120 h) and yolk sac contours (up to 72 h) of the zebrafish embryos the fluorescence in the selected area was quantified as integrated fluorescence intensity (RFU). The RFU values of the non-yolk compartment (i.e., RoB: rest of body) was assessed by subtracting the yolk results from the corresponding integrated fluorescence intensities found in the WB. In order to determine the degree of tissue exposure following administration of the fluorescent compounds, we calculated the AUC as the pharmacokinetic parameter of the non-compartmental analysis. The area under a plot of the fluorescence intensity (RFUT) versus time is referred to as the area under the (zero moment) curve AUC. RFUT represents the relative amount of compound present in the ZFE by measuring the integrated fluorescence intensity of delineated contours in fluorescence images (Figure 2). The AUC was then determined by summing the incremental area of subsequent trapezoids.

[2] = Relative Exposure (RE10/2/72h): ratio of AUC immersion to AUC IY microinjection; assay type: in vivo, zebrafish (Danio rerio)
Method: We then assessed by non-compartmental analysis the area from 0.25 to 72 h post exposure under the concentration–time curve (AUC0.25–72h) (Table 1) that represents well the relative tissue exposure to fluorescent compound across time. These absolute fluorescence intensities however cannot be comscriptpared across compounds as they depend critically on the respective quantum yields of the compounds and the device settings. To be able to compare the PK behavior of the compounds following different administration routes, we calculated the fluorescence-independent pharmacokinetic parameter Relative Exposure (RE10/2/72h), i.e., the ratio of AUC0.25–72h immersion (10 µM) to AUC0.25–72h IY microinjection (2 mg/kg). Separate RE values were calculated based on the whole body (WB), rest-of-body (RoB) and yolk fluorescence measurements (Table 2).
(§1) In order to determine the degree of tissue exposure following administration of the fluorescent compounds, we calculated the AUC as the pharmacokinetic parameter of the non-compartmental analysis. The area under a plot of the fluorescence intensity (RFUT) versus time is referred to as the area under the (zero moment) curve AUC. RFUT represents the relative amount of compound present in the ZFE by measuring the integrated fluorescence intensity of delineated contours in fluorescence images (Figure 2). The AUC was then determined by summing the incremental area of subsequent trapezoids. […] In some cases, observations were censored and excluded from the analysis, due to possible fluorescence quenching effect of compounds that remains at the site of the intrayolk microinjection.
We further calculated the Relative Exposure (RE10/2) by comparing the […] after IY microinjection (2 mg/kg), as defined in Equation (2): (2) RE10/2/h=AUCImm/AUCInj.

[3] = set-up: method as in PMID 34108572; details: experimentally determined before; cited from earlier work
[4] = Immersion of two-cell stage zebrafish embryos (10 µM), spatiotemporal fluorescence imaging and non-compartmental AUC; assay type: in vivo, zebrafish (Danio rerio); details: immersion 10 µM; for intrabody accumulation on longer incubations: 24–72 h; for AUC-RoB IMM (AUC0.25–72h): rest of body (non-yolk); for AUC-RoB IMM (AUC0.25–72h) / AUC-WB IMM (AUC0.25–72h) / AUC-Yolk IMM (AUC0.25–72h): 0.25 to 72 h; for AUC-WB IMM (AUC0.25–72h): whole body
Method: Immersion treatment: zebrafish embryos at the two-cell stage were immersed in Danieau’s medium containing the compound. A compound concentration of 10 µM and DMSO concentration of 0.1% (v/v) in a volume of 5 mL was used per well (6-well-plates). At 72 h, the zebrafish medium containing the compound was removed, and the animals rinsed 3 × with Danieau’s medium. Next, the embryos were kept for another 48 h in Danieau’s medium supplemented with DMSO (0.1%, v/v) in the absence of compound. In the case of control experiments, the embryos were exposed to Danieau’s medium supplemented with DMSO (0.1%, v/v).
Animals were kept in dark conditions in an incubator at 28.5 °C for defined time-periods (0.25, 1, 3, 6, 24, 48, 72, 96, and 120 h) before image analysis in a dark room. To acquire images, a Leica MZ10F fluorescent stereomicroscope (Leica Microsystems Inc., Buffalo Grove, IL, USA) with a 4.0× planapochromatic objective (10447243) was used, equipped with a Digital Color Camera Leica DFC310 FX (Software LAS 4.13, Leica Microsystems Inc., Buffalo Grove, IL, USA). Filter sets were GFP 10446222 in the case of compound FAMA, dSRED 10447079 in the cases of S-CY3A, CY3A and TAMRA, and CY5 10446366 in the cases of S-CY5.5A and S-CY5A. Previous to fluorescence imaging, the embryos were dechorionated (up to 72 hpf) and immobilized by hypothermia, rinsed three times with Danieau’s medium, and positioned latero-lateral (right lateral recumbency) on a single cavity glass slide and covered by a drop of agarose (0.1%). Then, using MetaMorph (Microscopy Automation and Image Analysis Software V.7.8.00, Molecular Devices, LLC., San Jose, CA, USA) and by manual delineation of the whole-body (WB) (up to 120 h) and yolk sac contours (up to 72 h) of the zebrafish embryos the fluorescence in the selected area was quantified as integrated fluorescence intensity (RFU). The RFU values of the non-yolk compartment (i.e., RoB: rest of body) was assessed by subtracting the yolk results from the corresponding integrated fluorescence intensities found in the WB.
as §1

[5] = rest of body (non-yolk), intrayolk microinjection 2 mg/kg, 0.25 to 72 h
[6] = whole body, intrayolk microinjection 2 mg/kg, 0.25 to 72 h
[7] = yolk, intrayolk microinjection 2 mg/kg, 0.25 to 72 h

Compound | accumulation in the gastrointestinal system [1] | RD (IY), Relative Distribution [1] | AUC-RoB IY (AUC0.25–72h) [1, 5] | AUC-WB IY (AUC0.25–72h) [1, 6] | AUC-Yolk IY (AUC0.25–72h) [1, 7] | RE-RoB (Relative Exposure RE-RoB10/2/72h) ([2]; rest of body, AUC0.25–72h immersion (10 µM) / AUC0.25–72h IY microinjection (2 mg/kg)) | RE-WB (Relative Exposure RE-WB10/2/72h) ([2]; whole body, AUC0.25–72h immersion (10 µM) / AUC0.25–72h IY microinjection (2 mg/kg)) | RE-Yolk (Relative Exposure RE-Yolk10/2/72h) ([2]; yolk, AUC0.25–72h immersion (10 µM) / AUC0.25–72h IY microinjection (2 mg/kg)) | Log D [3] | intrabody accumulation on longer incubations [4] | AUC-RoB IMM (AUC0.25–72h) [4] | AUC-WB IMM (AUC0.25–72h) [4] | AUC-Yolk IMM (AUC0.25–72h) [4] | RE-WB (Relative Exposure RE-WB10/2/72h) ([2]; zebrafish, in vivo) | intrabody accumulation after one hour of immersion followed by dechorionation ([4]; 1 h, dechorionated and rinsed) | localization of the dye after IY microinjection [1] | AUC-RoB IY (AUC0.25–72h) ([1]; zebrafish, in vivo, 2 mg/kg) | AUC-WB IY (AUC0.25–72h) ([1]; zebrafish, in vivo, 2 mg/kg) | AUC-Yolk IY (AUC0.25–72h) ([1]; zebrafish, in vivo, 2 mg/kg)
C#CCNC(=O)c1ccc(-c2c3ccc(=[N+](C)C)cc-3oc3cc(N(C)C)ccc23)c(C(=O)[O-])c1 (single isomer, unassigned) [TAMRA] | accumulation | 0.28 | 11.2 RFU × 10^7 | 40.4 RFU × 10^7 | 29.1 RFU × 10^7 | 0.25 | 0.19 | 0.17 | 0.46 | further intrabody accumulation | 2.78 RFU × 10^7 | 7.76 RFU × 10^7 | 4.98 RFU × 10^7 |  |  |  |  |  | 
C#CCNC(=O)CCCCCN1C(=CC=CC2=[N+](C)c3ccccc3C2(C)C)C(C)(C)c2ccccc21.[Cl-] [CY3A, Cyanine 3] | accumulation | 0.17 | 3.21 RFU × 10^7 | 18.9 RFU × 10^7 | 15.7 RFU × 10^7 |  |  |  | 1.73 | further intrabody accumulation | 6.41 RFU × 10^7 | 20.9 RFU × 10^7 | 14.6 RFU × 10^7 | 1.11 | fast intrabody accumulation |  |  |  | 
C#CCNC(=O)c1ccc2c(c1)C(=O)OC21c2ccc(O)cc2Oc2cc(O)ccc21 [FAMA, Fam A, 5-Isomer] | accumulation | 0.32 | 6.93 RFU × 10^7 |  | 14.9 RFU × 10^7 |  |  |  | −0.14 |  | 0.84 RFU × 10^7 | 1.17 RFU × 10^7 | 0.36 RFU × 10^7 | 0.05 |  |  |  |  | 
C#CCNC(=O)CCCCCN1C(=CC=CC2=[N+](C)c3ccc(S(=O)(=O)[O-])cc3C2(C)C)C(C)(C)c2cc(S(=O)(=O)[O-])ccc21.[K+] [S-CY3A, S-Cyanine 3] | accumulation | 0.24 | 7.65 RFU × 10^7 | 31.4 RFU × 10^7 | 23.8 RFU × 10^7 |  |  |  | −1.96 |  | 2.67 RFU × 10^7 | 4.56 RFU × 10^7 | 1.89 RFU × 10^7 | 0.15 |  | stayed localized to the microinjection site |  |  | 
C#CCNC(=O)CCCCC[N+]1=C(C=CC=CC=C2N(C)c3ccc4c(S(=O)(=O)[O-])cc(S(=O)(=O)[O-])cc4c3C2(C)C)C(C)(C)c2c1ccc1c(S(=O)(=O)[O-])cc(S(=O)(=O)[O-])cc21.[K+].[K+].[K+] [S-CY5.5A, S-Cyanine 5.5] |  | 0.19 | 1.02 RFU × 10^7 | 5.45 RFU × 10^7 | 4.42 RFU × 10^7 |  |  |  | −1.68 |  | 0 RFU × 10^7 | 0 RFU × 10^7 | 0 RFU × 10^7 | 0 |  | stayed localized to the microinjection site |  |  | 
Rhodamine 6g 6-Isomer [Compound R6GA] |  |  |  |  |  |  |  |  | 1.07 |  |  |  |  | 0.10 |  |  | 1.48 RFU × 10^7 | 5.76 RFU × 10^7 | 4.29 RFU × 10^7
S-Cyanine 5A [S-CY5A] |  | 0.18 | 1.67 RFU × 10^7 | 9.49 RFU × 10^7 | 7.82 RFU × 10^7 |  |  |  | −0.72 |  | 0 RFU × 10^7 | 0 RFU × 10^7 | 0 RFU × 10^7 | 0 |  | stayed localized to the microinjection site |  |  | 
